Several values for one entry are separate records, joined by “and”; a condition that tells them apart may be missing. Equal values may be shown once. Read-outs that look alike come from different tables or passages of the source.
Columns and labels:
[1] = target: T1, hNav1.5 (Homo sapiens, UniProt Q14524); experiment: Whole-cell patch-clamp on HEK293T cells, late INa (CiPA-like protocol with ATX-II); format: cell-based
T1 construct: host or cells: HEK293T
Procedure: Experiments were performed on HEK293T cell lines with persistent/inducible expression of different human cardiac ion channel isoforms: hNav1.5 and hKv7.1 + minK (Anaxon AG, Bern, Switzerland), hCav1.2 (α1c + β2 + α2δ1) (B’SYS GmbH, Witterswil, Switzerland), and hKv11.1 (hERG) (Cytocentrics Bioscience GmbH, Rostock, Germany). The cell lines were grown in standard conditions (37 °C, 5% CO2, 90% humidity) in DMEM:F12 medium (D8900, Sigma-Aldrich, Burlington, MA, USA) buffered with 15 mM HEPES, containing 3.15 g/L D-glucose and 0.055 g/L sodium pyruvate, supplemented with 1.2 g/L sodium bicarbonate, 10% fetal bovine serum (F2442, Sigma-Aldrich, Burlington, MA, USA), 2 mM L-glutamine (G7513, Sigma-Aldrich, Burlington, MA, USA), 1% penicillin–streptomycin (P4333, Sigma-Aldrich, Burlington, MA, USA), and with specific antibiotics for selection of transfected cells or induction of gene expression according to manufacturers’ instructions. The medium was changed every 2–3 days and the cells were passed weekly upon detachment with trypsin–EDTA solution. All cell culture media and solutions were sterile filtered with 0.22 μm polyvinylidene fluoride filters. Ncyte® vCardiomyocytes (Ncardia, Leiden, The Netherlands) were cultured in 24-well plates precoated with bovine fibronectin, following manufacturer’s instructions. For the experiments, cardiomyocytes were detached as described previously and plated on ϕ 10 mm glass coverslips, like the other cell lines.
Manual whole-cell patch-clamp experiments were performed at room temperature, with equipment as described in previous studies. Pipettes were pulled from Clark borosilicate glass capillaries with inner filament (GC150F-10, Harvard Apparatus, Holliston, MA, USA) and had typical resistances of 2–3 MΩ. Recordings were performed with a WPC-100 resistive feedback amplifier (ESF electronic, Göttingen, Germany) or an Axopatch 200B amplifier (Axon Instruments—Molecular Devices, San Jose, CA, USA) connected to a Digidata 1322A interface driven by the pClamp 8.2 Clampex module (Axon Instruments, part of Molecular Devices, San Jose, CA, USA). For different types of ion channel, we applied specific voltage-clamp protocols as follows: • - For hERG, a standard two-step activation protocol was used: holding at −70 mV, a 100 ms step at −50 mV used as current reference for measurements, a 2 s depolarizing step at +40 mV, followed by a 2 s step at −50 mV to elicit the peak hERG current by rapid recovery from inactivation, repeated sweeps at 10 s intervals, plus specific protocols to assess the voltage dependence of activation and inactivation, as described in Thomet et al., 2021 [11]. • - For hKv7.1 + minK, a general two-step activation protocol was used: holding at −110 mV, a 250 ms step at −80 mV with a brief (50 ms) step at −90 mV at the middle to monitor seal quality, a 3000 ms depolarizing step at +60 mV, followed by a 1000 ms step at −50 mV; repeated sweeps at 20 s intervals. • - For hCav1.2, a pharmacology protocol with holding at −80 mV, a first 100 ms step at −50 mV and a second 200 ms step at 0 mV, repeated sweeps at 20 s intervals with drug application after 5 sweeps if current levels were steady, plus an activation–inactivation protocol with holding at −80 mV, 1000 ms depolarizing steps from −80 to +50 mV in 10 mV increments, followed by 250 ms steps at +10 mV and a return to −80 mV; 14 sweeps at 20 s intervals. • - For hNav1.5, multiple voltage protocols were used, including the following: • - A standard pharmacology protocol with holding at −90 mV, a 20 ms step at −110 mV for seal monitoring, a 40 ms activation step at −10 mV, and repeated sweeps at 1 s intervals. […]

[2] = test system: voltage-gated sodium channels in rat hippocampal CA3 neurons; details: cited from earlier work; for IC50: newborn rat CA3 hippocampal neurons, ref [22]

T1 sequence (Q14524 whole entry): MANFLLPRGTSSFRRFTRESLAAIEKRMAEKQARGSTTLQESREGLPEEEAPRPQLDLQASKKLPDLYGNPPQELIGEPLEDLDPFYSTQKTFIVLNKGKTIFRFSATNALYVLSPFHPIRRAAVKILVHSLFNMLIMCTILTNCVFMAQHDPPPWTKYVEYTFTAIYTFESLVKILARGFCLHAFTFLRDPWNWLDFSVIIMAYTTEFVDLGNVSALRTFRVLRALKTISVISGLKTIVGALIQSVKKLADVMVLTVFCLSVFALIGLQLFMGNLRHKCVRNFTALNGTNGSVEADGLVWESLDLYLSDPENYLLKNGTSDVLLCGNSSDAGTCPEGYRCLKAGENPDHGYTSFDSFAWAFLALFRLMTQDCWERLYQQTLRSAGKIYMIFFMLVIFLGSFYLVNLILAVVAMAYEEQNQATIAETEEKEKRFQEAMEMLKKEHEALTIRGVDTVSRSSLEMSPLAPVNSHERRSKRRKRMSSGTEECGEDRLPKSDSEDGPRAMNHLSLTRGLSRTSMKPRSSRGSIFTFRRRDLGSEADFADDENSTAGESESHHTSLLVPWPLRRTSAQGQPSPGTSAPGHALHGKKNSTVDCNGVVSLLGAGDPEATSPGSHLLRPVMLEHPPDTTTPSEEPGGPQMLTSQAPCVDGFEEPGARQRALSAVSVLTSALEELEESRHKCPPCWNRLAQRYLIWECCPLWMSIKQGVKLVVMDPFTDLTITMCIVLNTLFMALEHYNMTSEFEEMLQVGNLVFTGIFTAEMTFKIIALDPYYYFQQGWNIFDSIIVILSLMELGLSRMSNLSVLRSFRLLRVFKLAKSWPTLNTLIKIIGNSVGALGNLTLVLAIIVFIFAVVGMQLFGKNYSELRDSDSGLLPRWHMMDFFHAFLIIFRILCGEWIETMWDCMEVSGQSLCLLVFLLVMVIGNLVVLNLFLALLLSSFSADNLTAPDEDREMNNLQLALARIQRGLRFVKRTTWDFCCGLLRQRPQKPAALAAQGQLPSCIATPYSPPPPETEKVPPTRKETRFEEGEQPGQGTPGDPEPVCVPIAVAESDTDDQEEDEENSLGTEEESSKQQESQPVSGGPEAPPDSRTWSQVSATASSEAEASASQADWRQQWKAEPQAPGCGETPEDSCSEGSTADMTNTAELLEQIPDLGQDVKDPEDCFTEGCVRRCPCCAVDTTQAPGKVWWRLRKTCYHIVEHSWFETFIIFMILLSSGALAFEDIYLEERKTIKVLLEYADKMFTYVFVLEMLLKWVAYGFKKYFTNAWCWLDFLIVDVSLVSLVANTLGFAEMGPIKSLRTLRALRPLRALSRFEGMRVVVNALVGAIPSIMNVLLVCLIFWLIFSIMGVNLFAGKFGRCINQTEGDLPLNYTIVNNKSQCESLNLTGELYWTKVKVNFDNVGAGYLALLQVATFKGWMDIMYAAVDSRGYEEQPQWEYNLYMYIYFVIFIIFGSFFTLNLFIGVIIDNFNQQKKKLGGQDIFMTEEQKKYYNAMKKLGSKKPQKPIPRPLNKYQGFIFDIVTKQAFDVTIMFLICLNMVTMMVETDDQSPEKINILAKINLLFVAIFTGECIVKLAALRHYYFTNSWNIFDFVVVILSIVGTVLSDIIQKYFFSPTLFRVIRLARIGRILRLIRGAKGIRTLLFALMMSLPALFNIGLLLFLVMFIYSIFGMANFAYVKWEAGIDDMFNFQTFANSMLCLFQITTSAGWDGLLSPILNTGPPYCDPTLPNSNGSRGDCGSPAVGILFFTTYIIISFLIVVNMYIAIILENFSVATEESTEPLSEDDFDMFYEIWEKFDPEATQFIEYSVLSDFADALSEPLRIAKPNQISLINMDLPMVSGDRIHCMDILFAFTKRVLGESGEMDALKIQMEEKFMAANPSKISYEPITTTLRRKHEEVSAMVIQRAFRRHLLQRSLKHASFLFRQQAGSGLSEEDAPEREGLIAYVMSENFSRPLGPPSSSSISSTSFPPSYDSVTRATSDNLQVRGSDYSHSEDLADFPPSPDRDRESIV

SMILES: NC(=O)O[C@@H](Cn1ncnn1)c1ccccc1Cl [cenobamate]
- inhibition at 1 µM ([1]; HEK-293T, cenobamate 1 µM, end of step at 0 mV, read-out: % INa inhibition (late), mean (Table S3)): 5.58%
- inhibition at 10 µM ([1]; HEK-293T, cenobamate 10 µM, read-out: % INa inhibition (late), mean (Table S3)): 25.4%
- inhibition at 10 µM ([1]; HEK-293T, cenobamate 10 µM, read-out: % INa inhibition (late), single experiments (Table S3)): 25.1%
- inhibition at 40 µM ([1]; HEK-293T, cenobamate 40 µM, read-out: % INa inhibition (late), mean (Table S3)): 49.3%
- inhibition at 40 µM ([1]; HEK-293T, cenobamate 40 µM, read-out: % INa inhibition (late), single experiments (Table S3)): 47.7%
- inhibition at 100 µM ([1]; HEK-293T, cenobamate 100 µM, read-out: % INa inhibition (late), mean (Table S3)): 79.5%
- inhibition at 100 µM ([1]; HEK-293T, cenobamate 100 µM, read-out: % INa inhibition (late), single experiments (Table S3)): 80.1%
- inhibition at 200 µM ([1]; HEK-293T, cenobamate 200 µM, read-out: % INa inhibition (late), mean (Table S3)): 94.4%
- inhibition at 200 µM ([1]; HEK-293T, cenobamate 200 µM, read-out: % INa inhibition (late), single experiments (Table S3)): 96.7%
- IC50 ([1]; INaLIC50 (model script), value entered in C++ script): 46.5 µM
- IC50 ([1]; apparent IC50 for late INa inhibition, ATX-II 20 nM or 100 nM, nH = 1): 46.5 µM
- % INa inhibition (late), single experiments (Table S3) ([1]; cenobamate 1 µM): 9.80% and 4.35% and 2.59%
- % INa inhibition (late), single experiments (Table S3) ([1]; cenobamate 10 µM): 27.99% and 16.75% and 31.85%
- % INa inhibition (late), single experiments (Table S3) ([1]; cenobamate 40 µM): 42.71% and 49.53% and 57.45%
- % INa inhibition (late), single experiments (Table S3) ([1]; cenobamate 100 µM): 91.98% and 72.79% and 79.43% and 73.06%
- % INa inhibition (late), single experiments (Table S3) ([1]; cenobamate 200 µM): 94.40% and 94.64% and 86.94% and 99.56%
- change in half-inactivation potential ([2]; 100 µM cenobamate, ref [22] Nakamura et al., 2019): −6 mV
- IC50 ([2]; read-out: IC50 on late (persistent) INa): 53.1 µM
- IC50 ([2]; read-out: estimated IC50 on peak (transient) Na+ current): > 500 µM
- Kd ([2]; ref [22] Nakamura et al., 2019, read-out: KR (affinity for resting (closed) conformation)): 798 µM

Source: paper PMC11674187, “Inhibitory Effects of Cenobamate on Multiple Human Cardiac Ion Channels and Possible Arrhythmogenic Consequences” (Biomolecules, 2024)
